PubChem BioAssay AID330 (DTP/NCI, 2004)
Where “and” joins values, the source holds several entries; their conditions need not be identical. Identical values can stand only once. Inconclusive results and toxic doses are left out.

System: P388 leukemia ip, CD2F1 mice, survival T/C
Experiment: NCI In Vivo Anticancer Drug Screen. Data for tumor model P388 Leukemia (intraperitoneal) in CD2F1 (CDF1) mice
Settings: endpoint: median survival time, higher = longer survival
How it was run: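 Mice carrying the transplanted tumor received test compound or vehicle. Survival was recorded in each group, and the value is the treated-group measurement divided by that of the vehicle-treated control group.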

[1] = dose: 100.0 mg/kg/injection, schedule: Q01DX001 (ip), vehicle: Klucel (hydroxypropylcellulose) (HPC)
[2] = dose: 200.0 mg/kg/injection, schedule: Q01DX001 (ip), vehicle: Klucel (hydroxypropylcellulose) (HPC)
[3] = dose: 400.0 mg/kg/injection, schedule: Q01DX001 (ip), vehicle: Klucel (hydroxypropylcellulose) (HPC)
[4] = dose: 50.0 mg/kg/injection, schedule: Q01DX009 (ip), vehicle: saline with Tween-80
[5] = dose: 100.0 mg/kg/injection, schedule: Q01DX009 (ip), vehicle: saline with Tween-80
[6] = dose: 50.0 mg/kg/injection, schedule: Q01DX005 (ip), vehicle: saline with Tween-80
[7] = dose: 100.0 mg/kg/injection, schedule: Q01DX005 (ip), vehicle: saline with Tween-80
[8] = dose: 200.0 mg/kg/injection, schedule: Q01DX005 (ip), vehicle: saline with Tween-80
[9] = dose: 12.5 mg/kg/injection, schedule: Q01DX009 (ip), vehicle: saline with Tween-80
[10] = dose: 25.0 mg/kg/injection, schedule: Q01DX009 (ip), vehicle: saline with Tween-80
[11] = dose: 60.0 mg/kg/injection, schedule: Q01DX005 (ip), vehicle: saline with Tween-80
[12] = dose: 120.0 mg/kg/injection, schedule: Q01DX005 (ip), vehicle: saline with Tween-80
[13] = dose: 50.0 mg/kg/injection, schedule: Q01DX005 (ip), vehicle: Klucel (hydroxypropylcellulose) (HPC)
[14] = dose: 100.0 mg/kg/injection, schedule: Q01DX005 (ip), vehicle: Klucel (hydroxypropylcellulose) (HPC)
[15] = dose: 200.0 mg/kg/injection, schedule: Q01DX005 (ip), vehicle: Klucel (hydroxypropylcellulose) (HPC)
[16] = dose: 50.0 mg/kg/injection, schedule: Q01DX009 (ip), vehicle: saline
[17] = dose: 100.0 mg/kg/injection, schedule: Q01DX009 (ip), vehicle: saline

## CC1(C)CC(c2ccccc2)C(c2ccccc2)C(=O)O1 (configuration not stated)
dose: 100.0 mg/kg/injection, schedule: Q04DX003 (ip), vehicle: Klucel (hydroxypropylcellulose) (HPC)
  T/C: 93 % of control
dose: 200.0 mg/kg/injection, schedule: Q04DX003 (ip), vehicle: Klucel (hydroxypropylcellulose) (HPC)
  T/C: 92 % of control

## O=C(O)CCC1CC(=O)OC1c1ccccc1 (configuration not stated)
[1]
  T/C: 94 % of control
[2]
  T/C: 94 % of control
[3]
  T/C: 94 % of control

## [Br][Pt].[NH-]CC[N-]CC[NH-]
dose: 1.56 mg/kg/injection, schedule: Q01DX009 (ip), vehicle: saline
  T/C: 102 % of control
dose: 3.13 mg/kg/injection, schedule: Q01DX009 (ip), vehicle: saline
  T/C: 100 % of control
dose: 6.25 mg/kg/injection, schedule: Q01DX009 (ip), vehicle: saline
  T/C: 100 % of control
dose: 12.5 mg/kg/injection, schedule: Q01DX009 (ip), vehicle: saline
  T/C: 97 % of control
dose: 25.0 mg/kg/injection, schedule: Q01DX009 (ip), vehicle: saline
  T/C: 97 % of control

## CC(OS(C)(=O)=O)/C(Br)=C(/Br)C(C)OS(C)(=O)=O (configuration not stated)
[1]
  T/C: 158 % of control
[2]
  T/C: 204 % of control
[3]
  T/C: 230 % of control

## COC(=O)C#CCO
dose: 6.25 mg/kg/injection, schedule: Q01DX009 (ip), vehicle: water
  T/C: 103 % of control
dose: 12.5 mg/kg/injection, schedule: Q01DX009 (ip), vehicle: water
  T/C: 112 % of control and 94 % of control
dose: 25.0 mg/kg/injection, schedule: Q01DX009 (ip), vehicle: water
  T/C: 112 % of control and 120 % of control
dose: 50.0 mg/kg/injection, schedule: Q01DX009 (ip), vehicle: water
  T/C: 112 % of control and 122 % of control

## O=NN(c1ccccc1)c1ccc([N+](=O)[O-])cc1
[4]
  T/C: 90 % of control
[5]
  T/C: 90 % of control

## CCC(=O)N1C(=O)C(C)C23c4ccccc4C(=O)N2CCCN13 (configuration not stated)
[6]
  T/C: 97 % of control
[7]
  T/C: 96 % of control
[8]
  T/C: 96 % of control

## O=C(CO)C1CC2CCC1C2 (configuration not stated)
dose: 60.0 mg/kg/injection, schedule: Q01DX005 (ip), vehicle: Klucel (hydroxypropylcellulose) (HPC)
  T/C: 101 % of control
dose: 120.0 mg/kg/injection, schedule: Q01DX005 (ip), vehicle: Klucel (hydroxypropylcellulose) (HPC)
  T/C: 101 % of control
dose: 240.0 mg/kg/injection, schedule: Q01DX005 (ip), vehicle: Klucel (hydroxypropylcellulose) (HPC)
  T/C: 99 % of control

## CC(O)CCC1CCCCN1 (configuration not stated)
dose: 50.0 mg/kg/injection, schedule: Q01DX005 (ip), vehicle: saline
  T/C: 109 % of control
dose: 100.0 mg/kg/injection, schedule: Q01DX005 (ip), vehicle: saline
  T/C: 100 % of control
dose: 200.0 mg/kg/injection, schedule: Q01DX005 (ip), vehicle: saline
  T/C: 101 % of control

## CCOC(=O)c1ccc(NC(=O)O/N=C/c2ccncc2)cc1
dose: 6.25 mg/kg/injection, schedule: Q01DX009 (ip), vehicle: saline with Tween-80
  T/C: 88 % of control
[9]
  T/C: 112 % of control
[10]
  T/C: 88 % of control
[4]
  T/C: 93 % of control
[5]
  T/C: 94 % of control
dose: 200.0 mg/kg/injection, schedule: Q01DX009 (ip), vehicle: saline with Tween-80
  T/C: 90 % of control

## CC(C)OCc1cn[nH]n1
[11]
  T/C: 100 % of control
[12]
  T/C: 97 % of control
dose: 240.0 mg/kg/injection, schedule: Q01DX005 (ip), vehicle: saline with Tween-80
  T/C: 103 % of control

## CCCCN(CCCC)C(=O)C(C)O (configuration not stated)
dose: 25.0 mg/kg/injection, schedule: Q01DX005 (ip), vehicle: Klucel (hydroxypropylcellulose) (HPC)
  T/C: 108 % of control
[13]
  T/C: 105 % of control
[14]
  T/C: 110 % of control
[15]
  T/C: 112 % of control

## FC(F)(Br)C(F)(Cl)Br (configuration not stated)
[6]
  T/C: 101 % of control
[7]
  T/C: 99 % of control
[8]
  T/C: 114 % of control

## C=C1C(=O)O[C@@H]2[C@H]3C(C)=CC[C@@H](OC(=O)/C(C)=C/C)[C@]3(C)[C@H](O)C[C@@H]12
dose: 7.0 mg/kg/injection, schedule: Q01DX005 (ip), vehicle: Klucel (hydroxypropylcellulose) (HPC)
  T/C: 100 % of control
dose: 14.0 mg/kg/injection, schedule: Q01DX005 (ip), vehicle: Klucel (hydroxypropylcellulose) (HPC)
  T/C: 100 % of control
dose: 28.0 mg/kg/injection, schedule: Q01DX005 (ip), vehicle: Klucel (hydroxypropylcellulose) (HPC)
  T/C: 106 % of control
dose: 56.0 mg/kg/injection, schedule: Q01DX005 (ip), vehicle: Klucel (hydroxypropylcellulose) (HPC)
  T/C: 105 % of control

## CCc1cc(-c2cc(CC)[nH]n2)n[nH]1
dose: 60.0 mg/kg/injection, schedule: Q01DX005 (ip), vehicle: saline
  T/C: 100 % of control
dose: 120.0 mg/kg/injection, schedule: Q01DX005 (ip), vehicle: saline
  T/C: 97 % of control
dose: 240.0 mg/kg/injection, schedule: Q01DX005 (ip), vehicle: saline
  T/C: 95 % of control

## CSC(=CC(=O)c1ccccc1)SC
[9]
  T/C: 104 % of control
[10]
  T/C: 105 % of control
[4]
  T/C: 114 % of control
[5]
  T/C: 110 % of control

## CNC(=O)OCc1c2ccncc2c(C)c2c1[nH]c1ccccc12
dose: 6.25 mg/kg/injection, schedule: Q04DX002 (ip), vehicle: saline with Tween-80
  T/C: 163 % of control
dose: 12.5 mg/kg/injection, schedule: Q04DX002 (ip), vehicle: saline with Tween-80
  T/C: 150 % of control
dose: 25.0 mg/kg/injection, schedule: Q04DX002 (ip), vehicle: saline with Tween-80
  T/C: 153 % of control and 167 % of control
dose: 50.0 mg/kg/injection, schedule: Q04DX002 (ip), vehicle: saline with Tween-80
  T/C: 109 % of control

## CCCCNC(=S)NC(=O)c1ccccc1
[10]
  T/C: 95 % of control
[4]
  T/C: 94 % of control

## O=C(NC(Cc1c[nH]c2ccccc12)C(=O)NC(Cc1ccccc1)C(=O)O)OCc1ccccc1 (configuration not stated)
[13]
  T/C: 103 % of control and 93 % of control
[14]
  T/C: 106 % of control
[15]
  T/C: 89 % of control

## CSc1ccc2ns[s+]c2c1
[6]
  T/C: 104 % of control
[7]
  T/C: 102 % of control
[8]
  T/C: 101 % of control

## CN(C)c1ccc(-c2cccc[n+]2C)cc1
dose: 1.5 mg/kg/injection, schedule: Q01DX009 (ip), vehicle: saline
  T/C: 103 % of control
dose: 3.0 mg/kg/injection, schedule: Q01DX009 (ip), vehicle: saline
  T/C: 108 % of control
dose: 6.0 mg/kg/injection, schedule: Q01DX009 (ip), vehicle: saline
  T/C: 109 % of control

## Cc1cc(C)n(-c2cc(N3CCN(C)CC3)ncn2)n1
[16]
  T/C: 98 % of control
[17]
  T/C: 98 % of control
dose: 200.0 mg/kg/injection, schedule: Q01DX009 (ip), vehicle: saline
  T/C: 98 % of control

## CN(C)/C=C\c1c([N+](=O)[O-])ncn1C
[6]
  T/C: 99 % of control
[7]
  T/C: 99 % of control
[8]
  T/C: 97 % of control

## CCCCCCCCOCCS(=O)(=O)O
[11]
  T/C: 95 % of control
[12]
  T/C: 92 % of control

## CCOC(=O)C(CC)(COCc1ccccc1)C(=O)OCC
dose: 50.0 mg/kg/injection, schedule: Q01DX009 (ip), vehicle: other
  T/C: 100 % of control
dose: 100.0 mg/kg/injection, schedule: Q01DX009 (ip), vehicle: other
  T/C: 100 % of control
dose: 200.0 mg/kg/injection, schedule: Q01DX009 (ip), vehicle: other
  T/C: 100 % of control

## CC(=O)N(C)N=Nc1ccc(C)cc1
[16]
  T/C: 100 % of control and 121 % of control and 123 % of control
[17]
  T/C: 100 % of control and 118 % of control and 121 % of control

## COc1nc(N)c2cnn(C3CCCCO3)c2n1 (configuration not stated)
dose: 100.0 mg/kg/injection, schedule: Q04DX002 (ip), vehicle: saline with Tween-80
  T/C: 99 % of control
dose: 200.0 mg/kg/injection, schedule: Q04DX002 (ip), vehicle: saline with Tween-80
  T/C: 96 % of control
dose: 400.0 mg/kg/injection, schedule: Q04DX002 (ip), vehicle: saline with Tween-80
  T/C: 101 % of control

## O=c1c2[nH]c3ccccc3sc=2c(=O)n1-c1c(F)c(F)c(F)c(F)c1F
[6]
  T/C: 109 % of control
[7]
  T/C: 103 % of control
[8]
  T/C: 100 % of control

## O=C1CSC(=S)N1c1ccccc1C(F)(F)F
dose: 50.0 mg/kg/injection, schedule: Q01DX009 (ip), vehicle: suspension in saline
  T/C: 91 % of control
dose: 100.0 mg/kg/injection, schedule: Q01DX009 (ip), vehicle: suspension in saline
  T/C: 96 % of control
dose: 200.0 mg/kg/injection, schedule: Q01DX009 (ip), vehicle: suspension in saline
  T/C: 93 % of control
